# Laboratory results taken from article PMC6251916, “CKD-506, a novel HDAC6-selective inhibitor, improves renal outcomes and survival in a mouse model of systemic lupus erythematosus” (Scientific Reports, 2018).
# Columns and labels:
# [1] = parameters: method as in PMID 27646843; settings: cited from earlier work
# HDAC6 and HDAC1 = system: HDAC6 and HDAC1; parameters: method as in PMID 22262760; settings: cited from earlier work
# NZB/W F1 female mice [2] = test: Murine SLE model: flow cytometry of splenocytes; format: in vivo, mouse; settings: methylprednisolone 5 mg/kg/day
# From the text: Single cell suspensions were obtained from the spleens of NZB/W F1 mice at autopsy (at 43–44 weeks of age). The splenocytes were stained with PerCP-Cy5.5-conjugated anti-mouse CD3e (PerCP-cy5.5-CD3e, eBioscience, San Diego, CA, USA), fluorescein isothiocyanate (FITC)-conjugated anti-mouse CD4 (FITC-CD4, BD Biosciences, San Jose, CA, USA), PE-cyanine7-conjugated anti-mouse CD8a (eBioscience), allo-phycocyanin (APC)-conjugated anti-mouse CD25 (BD Biosciences) and PE-conjugated anti-mouse CD138 (BD Biosciences).
# T cell profile was analyzed as described previously; briefly, we examined proportions of Th1 cells (CD4^+CD25^+T-bet^+), Th2 cells (CD4^+CD25^+GATA-3^+), Th17 cells (CD4^+CD25^+ROR-γt^+), and Treg cells (CD4^+CD25^+Foxp3^+). To analyze T helper subsets, the splenocytes were stained with antibodies to CD4 and CD25 (FITC-conjugated anti-mouse CD4 and APC-conjugated anti-mouse CD25, BD Biosciences). Cells were fixed and permeabilized prior to staining with T-bet, GATA-3, ROR-γt and Foxp3 antibodies (PE-, BD Biosciences).
# NZB/W F1 female mice [3] = test: Murine SLE model: survival, severe proteinuria, UP/C; format: in vivo, mouse; settings: methylprednisolone 5 mg/kg/day i.p.
# Description: (§1) Survival had been monitored until 42 weeks of age.
# During the experiments, urine protein levels had been measured every 2 weeks. Fresh urine was collected by performing abdominal massages. Urine protein was measured with the Coomassie Brilliant Blue method as described in our previous study. Urine creatinine was measured using a DRI-CHEM 3000 Colorimetric analyzer (Fujifilm, Tokyo, Japan) with the urine diluted in deionized water (1:100 dilution).
# NZB/W F1 female mice [4] = test: Murine SLE model: BUN and anti-dsDNA antibody levels; format: in vivo, mouse; settings: methylprednisolone 5 mg/kg/day
# Description: as §1
# Blood samples had been collected from mice under isoflurane anesthesia every 4 weeks (at 24, 28, 32, 36, 40 weeks of age and autopsy), and the obtained serum samples had been kept at −70 °C until the analysis.
# NZB/W F1 female mice [5] = test: Murine SLE model: serum chemistry and necropsy; settings: group P: methylprednisolone 5 mg/kg/day; serum at autopsy; mean ± SD
# Description: Control mice received 150 μL of vehicle (Ethanol: Kolliphor® EL: saline = 1:1:8) and were subjected to the same schedule. Survival rate and incidence of severe proteinuria (percent individual mice with urine protein ≥300 mg/dL) were calculated. Survival had been monitored until 42 weeks of age.
# NZB/W F1 female mice [6] = test: Murine SLE model: cytokine levels in kidney extracts; format: in vivo, mouse; settings: group P: methylprednisolone 5 mg/kg/day; at autopsy; mean ± SD; n = 13
# Description: The kidneys were weighed and then transferred into dPBS (Welgene) supplemented with anti-protease Complete TM cocktail (Boehringer) using 12.5 μl of dPBS per milligram of wet weight tissue. Samples were homogenized twice using an Automill TK-AM5 freeze-crushing cell homogenizer (W 280 mm × D 390 mm × H 290 mm, Tokken Inc., Chiba, Japan) at 1,400 rpm for 90 seconds and then centrifuged at 16,000 × g for 15 min at 4 °C. The supernatants were collected and total protein concentrations were determined in the kidney extracts using a bicinchoninic acid (BCA) protein assay kit™ (Pierce). Total protein concentrations of the kidney extracts were adjusted to 2 mg/dl and used for the analysis of IFN-γ, IL-10, IL-15, IL-17, IL-1β, IL-4, IL-6, IP-10, MCP-1, CCL4, RANTES, TNF-α and sCD40L with Milliplex® MAP Kits (Millipore).
# NZB/W F1 female mice [7] = test: Murine SLE model: serum cytokine levels (Milliplex); format: in vivo, mouse
# Description: Serum samples were assayed using Milliplex® MAP Kits (Millipore) for granulocyte macrophage-colony stimulating factor (GM-CSF), interferon-γ (IFN-γ), interleukin-1α (IL-1α), IL-1β, IL-10, IL-12(p70), IL-15, IL-17a, IL-2, IL-4, IL-6, tumor necrosis factor α (TNF-α), transforming growth factor beta 1 (TGF-β1), IL-22, IL-23, IFN-inducible protein 10 (IP-10 (CXCL10)) and chemokine (C-C motif) ligand 2 (CCL2 (MCP-1)).
# NZB/W F1 female mice [8] = test: Murine SLE model: kidney histopathology (H&E, PAS, Masson trichrome); format: in vivo, mouse; settings: methylprednisolone 5 mg/kg/day
# From the text: as §1
# Kidneys were harvested from mice at the end of the study (at 43–44 weeks of age). For light microscopy, the tissues were fixed in 10% neutral buffered formalin, embedded in paraffin wax, sectioned at a thickness of 5 μm and stained with H&E (BBC Biochemical, Mount Vernon, WA, USA). Periodic acid/Schiff (PAS stain kit, BBC Biochemical) staining and Masson trichrome (BBC Biochemical) staining were used for the detection of […] and fibrosis, respectively. Inflammatory cell infiltration and mesangial proliferation were scored on a 4-point scale as 0 (none), 1+ (mild), 2+ (moderate), 3+ (moderate to severe) and 4+ (severe).
# [9] = group P: methylprednisolone 5 mg/kg/day, at autopsy, mean ± SD, n = 13
compound,measurement,setting,value
O=C(CCCCCCNC(=O)c1cnc(N(c2ccccc2)c2ccccc2)nc1)NO [ACY-1215],significant adverse effects reported in clinical trials,[1],grade 3 anemia and neutropenia
same,selectivity for HDAC6 and HDAC1 at IC50,HDAC6 and HDAC1,11 fold
"C[C@H]1C[C@@H]2[C@H]([C@@H](O)C[C@@]3(C)[C@H]2CC[C@]3(O)C(=O)CO)[C@@]2(C)C=CC(=O)C=C12 [methylprednisolone, reference compound]",ratio of CD4+CD8−/CD4−CD8+ T cells in spleen vs vehicle,NZB/W F1 female mice [2],significantly lower
same,fewer CD4−CD8− cells compared with group vehicle,NZB/W F1 female mice [2]; spleen,4.3%
same,fewer CD138+ cells compared with group vehicle,NZB/W F1 female mice [2]; spleen,16.3%
same,Survival rate at the end of the study,NZB/W F1 female mice [3]; 42-weeks of age,93.3%
same,incidence of severe proteinuria (urine protein >300 mg/dl),NZB/W F1 female mice [3]; 42 weeks of age,20%
same,Levels of BUN vs vehicle,NZB/W F1 female mice [4]; 36 weeks of age,significantly lower
same,Levels of BUN vs vehicle,NZB/W F1 female mice [4]; at autopsy,significantly lower
same,Ca,NZB/W F1 female mice [5],9.35 ± 0.53 mg/dL
same,Kidney extract CCL2,NZB/W F1 female mice [6],19.91 ± 11.71 pg/mL
same,Kidney extract CCL4,NZB/W F1 female mice [6],0.60 ± 1.84 pg/mL
same,Kidney extract IFN-γ,NZB/W F1 female mice [6],16.91 ± 5.10 pg/mL
same,Kidney extract IL-1β,NZB/W F1 female mice [6],4.80 ± 2.85 pg/mL
same,Kidney extract IL-4,NZB/W F1 female mice [6],0.06 ± 0.08 pg/mL
same,Kidney extract IL-6,NZB/W F1 female mice [6],2.95 ± 0.59 pg/mL
same,Kidney extract IL-10,NZB/W F1 female mice [6],12.14 ± 2.02 pg/mL
same,Kidney extract IL-15,NZB/W F1 female mice [6],40.90 ± 9.01 pg/mL
same,Kidney extract IP-10,NZB/W F1 female mice [6],50.64 ± 15.63 pg/mL
same,Kidney extract RANTES,NZB/W F1 female mice [6],9.77 ± 15.22 pg/mL
same,Kidney extract TNF-α,NZB/W F1 female mice [6],0.07 ± 0.24 pg/mL
same,Serum IFN-γ,NZB/W F1 female mice [7]; [9],0.07 ± 0.24 pg/mL
same,Serum IL-1α,NZB/W F1 female mice [7]; [9],666.21 ± 527.20 pg/mL
same,Serum IL-1β,NZB/W F1 female mice [7]; [9],0.65 ± 2.34 pg/mL
same,Serum IL-2,NZB/W F1 female mice [7]; [9],0.09 ± 0.34 pg/mL
same,Serum IL-4,NZB/W F1 female mice [7]; [9],1.49 ± 0.20 pg/mL
same,Serum IL-6,NZB/W F1 female mice [7]; [9],3.36 ± 3.30 pg/mL
same,Serum IL-10,NZB/W F1 female mice [7]; [9],18.41 ± 12.97 pg/mL
same,Serum IL-12(70),NZB/W F1 female mice [7]; [9],1.04 ± 3.76 pg/mL
same,Serum IL-15,NZB/W F1 female mice [7]; [9],45.25 ± 14.91 pg/mL
same,Serum IL-17,NZB/W F1 female mice [7]; [9],3.59 ± 1.73 pg/mL
same,Serum IL-22,NZB/W F1 female mice [7]; [9],17.68 ± 16.19 pg/mL
same,Serum IL-23,NZB/W F1 female mice [7]; [9],22.31 ± 61.77 pg/mL
same,Serum TGF-β1,NZB/W F1 female mice [7]; [9],66067.78 ± 18777.09 pg/mL
same,Serum TNF-α,NZB/W F1 female mice [7]; [9],1.57 ± 2.07 pg/mL
same,Mean serum levels of CCL2 vs vehicle,"NZB/W F1 female mice [7]; methylprednisolone 5 mg/kg/day, 36 weeks of age, difference not statistically significant",lower
same,Degree of inflammatory cell infiltration in kidneys vs vehicle,NZB/W F1 female mice [8],significantly lower
